PubChem BioAssay (NCI)
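Interpolation was linear, between the two tested concentrations surrounding the appropriate level; five concentrations were tested over 48 hours in 96-well plates. Here, GI50 denotes the concentration required for 50% inhibition of growth. TGI: total growth inhibition.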

Columns and labels:
Assay in all cases: NCI-60 cell line screen, 48 h
[1] = system: SF-295 CNS
[2] = system: NCI/ADR-RES ovarian
[3] = system: SR leukemia
[4] = system: RPMI-8226 leukemia
[5] = system: MOLT-4 leukemia
[6] = system: T-47D breast
[7] = system: PC-3 prostate
[8] = system: ACHN renal
[9] = system: HOP-62 NSCLC
[10] = system: OVCAR-5 ovarian
[11] = system: LOX IMVI melanoma
[12] = system: EKVX NSCLC
[13] = system: CAKI-1 renal
[14] = system: SK-MEL-5 melanoma
[15] = system: A498 renal
[16] = system: SK-MEL-2 melanoma
[17] = system: MDA-MB-435
[18] = system: OVCAR-8 ovarian
[19] = system: OVCAR-4 ovarian
[20] = system: SNB-75 CNS
[21] = system: UO-31 renal
[22] = system: NCI-H460 lung
[23] = system: HCC-2998 colon
[24] = system: HOP-92 NSCLC
[25] = system: NCI-H23 lung
[26] = system: CCRF-CEM leukemia
[27] = system: IGROV1 ovarian
[28] = system: NCI-H522 lung
[29] = system: DU-145 prostate
[30] = system: UACC-257 melanoma
[31] = system: SF-539 CNS
[32] = system: COLO 205 colon
[33] = system: SK-MEL-28 melanoma
[34] = system: HL-60(TB) leukemia
[35] = system: SF-268 CNS
[36] = system: 786-0 renal
[37] = system: SN12C renal
[38] = system: MCF7 breast
[39] = system: BT-549 breast
[40] = system: NCI-H226 lung
[41] = system: RXF 393 renal
[42] = system: MDA-MB-231 breast
[43] = system: OVCAR-3 ovarian
[44] = system: U251 CNS
[45] = system: TK-10 renal
[46] = system: K-562 leukemia
[47] = system: SK-OV-3 ovarian
[48] = system: KM12 colon
[49] = system: M14 melanoma
[50] = system: HT29 colon
[51] = system: HCT-15 colon
[52] = system: HS 578T breast
[53] = system: HCT-116 colon
[54] = system: A549 NSCLC
[55] = system: UACC-62 melanoma
[56] = system: SW-620 colon
[57] = system: SNB-19 CNS

Question: How did the GI50 [1] turn out when Cc1ccc(-c2c3c(nn2-c2ccc(S(=O)(=O)NC(=O)Nc4ccccc4)cc2)-c2ccccc2C3)cc1 was run?
Answer: 34.5 µM

Question: What about the TGI [1] of the same compound?
Answer: > 100 µM

Question: What about the GI50 [2] of the same compound?
Answer: 23.1 µM

Question: What about the TGI [2] of the same compound?
Answer: 75.5 µM

Question: And the GI50 [3]?
Answer: 2.26 µM

Question: And the TGI [3]?
Answer: 6.92 µM

Question: What about the GI50 [4] of the same compound?
Answer: 7.22 µM

Question: What about the TGI [4] of the same compound?
Answer: 69.3 µM

Question: And the GI50 [5]?
Answer: 5.14 µM

Question: What about the TGI [5] of the same compound?
Answer: > 100 µM

Question: And the GI50 [6]?
Answer: 30.7 µM

Question: What about the TGI [6] of the same compound?
Answer: > 100 µM

Question: What about the GI50 [7] of the same compound?
Answer: 16 µM

Question: And the TGI [7]?
Answer: 38 µM

Question: And the GI50 [8]?
Answer: 14.6 µM

Question: What about the TGI [8] of the same compound?
Answer: 30.5 µM

Question: And the GI50 [9]?
Answer: 32 µM

Question: What about the TGI [9] of the same compound?
Answer: > 100 µM

Question: What about the GI50 [10] of the same compound?
Answer: 30.1 µM

Question: What about the TGI [10] of the same compound?
Answer: 97.2 µM

Question: And the GI50 [11]?
Answer: 12.3 µM

Question: And the TGI [11]?
Answer: > 100 µM

Question: And the GI50 [12]?
Answer: 18.1 µM

Question: What about the TGI [12] of the same compound?
Answer: 43.8 µM

Question: What about the GI50 [13] of the same compound?
Answer: 15.4 µM

Question: What about the TGI [13] of the same compound?
Answer: 45.5 µM

Question: What about the GI50 [14] of the same compound?
Answer: 15.1 µM

Question: And the TGI [14]?
Answer: 36.5 µM

Question: And the GI50 [15]?
Answer: 19.6 µM

Question: And the TGI [15]?
Answer: 36.6 µM

Question: What about the GI50 [16] of the same compound?
Answer: 16.1 µM

Question: What about the TGI [16] of the same compound?
Answer: 32.5 µM

Question: What about the GI50 [17] of the same compound?
Answer: 28.1 µM

Question: What about the TGI [17] of the same compound?
Answer: > 100 µM

Question: What about the GI50 [18] of the same compound?
Answer: 19.1 µM

Question: And the TGI [18]?
Answer: 52.9 µM

Question: What about the GI50 [19] of the same compound?
Answer: 19.7 µM

Question: And the TGI [19]?
Answer: 51.5 µM

Question: What about the GI50 [20] of the same compound?
Answer: 22.9 µM

Question: What about the TGI [20] of the same compound?
Answer: 66.3 µM

Question: And the GI50 [21]?
Answer: 8.78 µM

Question: And the TGI [21]?
Answer: 24.3 µM

Question: What about the GI50 [22] of the same compound?
Answer: 19.3 µM

Question: And the TGI [22]?
Answer: 70.2 µM

Question: And the GI50 [23]?
Answer: 13.6 µM

Question: What about the TGI [23] of the same compound?
Answer: 37.9 µM

Question: And the GI50 [24]?
Answer: 18.1 µM

Question: What about the TGI [24] of the same compound?
Answer: 44.9 µM

Question: What about the GI50 [25] of the same compound?
Answer: 15 µM

Question: What about the TGI [25] of the same compound?
Answer: 37.6 µM

Question: What about the GI50 [26] of the same compound?
Answer: 2.13 µM

Question: And the TGI [26]?
Answer: > 100 µM

Question: What about the GI50 [27] of the same compound?
Answer: 3.67 µM

Question: And the TGI [27]?
Answer: 16.5 µM

Question: And the GI50 [28]?
Answer: 11.7 µM

Question: What about the TGI [28] of the same compound?
Answer: 30.5 µM

Question: And the GI50 [29]?
Answer: 15.3 µM

Question: And the TGI [29]?
Answer: 33.9 µM

Question: And the GI50 [30]?
Answer: 18.7 µM

Question: And the TGI [30]?
Answer: 39.9 µM

Question: What about the GI50 [31] of the same compound?
Answer: 18.2 µM

Question: And the TGI [31]?
Answer: 38.9 µM

Question: What about the GI50 [32] of the same compound?
Answer: 19.5 µM

Question: What about the TGI [32] of the same compound?
Answer: 45.9 µM

Question: What about the GI50 [33] of the same compound?
Answer: 21.2 µM

Question: What about the TGI [33] of the same compound?
Answer: 46.9 µM

Question: And the GI50 [34]?
Answer: 24.2 µM

Question: And the TGI [34]?
Answer: 83.7 µM

Question: And the GI50 [35]?
Answer: 19.1 µM

Question: What about the TGI [35] of the same compound?
Answer: 55.7 µM

Question: What about the GI50 [36] of the same compound?
Answer: 22.7 µM

Question: And the TGI [36]?
Answer: > 100 µM

Question: And the GI50 [37]?
Answer: 16.9 µM

Question: What about the TGI [37] of the same compound?
Answer: 35.8 µM

Question: What about the GI50 [38] of the same compound?
Answer: 20.5 µM

Question: What about the TGI [38] of the same compound?
Answer: > 100 µM

Question: What about the GI50 [39] of the same compound?
Answer: 18.8 µM

Question: And the TGI [39]?
Answer: 44.2 µM

Question: What about the GI50 [40] of the same compound?
Answer: 15.4 µM

Question: And the TGI [40]?
Answer: 56 µM

Question: What about the GI50 [41] of the same compound?
Answer: 17.9 µM

Question: And the TGI [41]?
Answer: 43.1 µM

Question: And the GI50 [42]?
Answer: 17.5 µM

Question: And the TGI [42]?
Answer: 55 µM

Question: What about the GI50 [43] of the same compound?
Answer: 32.9 µM

Question: What about the TGI [43] of the same compound?
Answer: > 100 µM

Question: And the GI50 [44]?
Answer: 17.5 µM

Question: And the TGI [44]?
Answer: 37.6 µM

Question: What about the GI50 [45] of the same compound?
Answer: 10.3 µM

Question: What about the TGI [45] of the same compound?
Answer: 24.8 µM

Question: And the GI50 [46]?
Answer: 11.1 µM

Question: And the TGI [46]?
Answer: > 100 µM

Question: And the GI50 [47]?
Answer: 18.2 µM

Question: What about the TGI [47] of the same compound?
Answer: 48.1 µM

Question: What about the GI50 [48] of the same compound?
Answer: 18 µM

Question: And the TGI [48]?
Answer: 51.2 µM

Question: What about the GI50 [49] of the same compound?
Answer: 24.6 µM

Question: What about the TGI [49] of the same compound?
Answer: 87.2 µM

Question: And the GI50 [50]?
Answer: 35.7 µM

Question: And the TGI [50]?
Answer: > 100 µM

Question: And the GI50 [51]?
Answer: 15.5 µM

Question: And the TGI [51]?
Answer: 52.2 µM

Question: What about the GI50 [52] of the same compound?
Answer: 24.1 µM

Question: What about the TGI [52] of the same compound?
Answer: 73.9 µM

Question: And the GI50 [53]?
Answer: 19.2 µM

Question: And the TGI [53]?
Answer: > 100 µM

Question: What about the GI50 [54] of the same compound?
Answer: 28 µM

Question: What about the TGI [54] of the same compound?
Answer: > 100 µM

Question: And the GI50 [55]?
Answer: 12.8 µM

Question: What about the TGI [55] of the same compound?
Answer: 27.4 µM

Question: And the GI50 [56]?
Answer: 12 µM

Question: And the TGI [56]?
Answer: > 100 µM

Question: And the GI50 [57]?
Answer: 30 µM

Question: What about the TGI [57] of the same compound?
Answer: > 100 µM
